Measurements reported in article PMC5845353, “The selective cathepsin K inhibitor MIV-711 attenuates joint pathology in experimental animal models of osteoarthritis” (Journal of Translational Medicine, 2018).

System: dogs subjected to partial medial meniscectomy
Assay: Dog partial medial meniscectomy study, gross macroscopic scoring
Assay type: in vivo
Conditions: MIV-711 30 µmol/kg
Description: The study design and animal usage were reviewed and approved by the IACUC at Preclinical Research Services (PCRS; Fort Collins, CO) for compliance with regulations before study initiation (IACUC Number 1021). Animal welfare, housing and research procedures for this study complied with the U.S. Department of Agriculture’s (USDA) Animal Welfare Act (9 CFR Parts 1, 2, and 3), the Guide for the Care and Use of Laboratory Animals, and PCRS Standard of Procedures. Thirty adult naïve female beagle dogs, with a weight of 7.5–11.3 kg and an age of approximately 6–8 months at study initiation, were used for this study. The dogs were acclimated for at least 7 days before study initiation.
At least 12 h before surgery, a fentanyl transdermal 2.5 mg patch was placed on the skin on the ventral aspect of the tail of each dog and secured into place with tape. The fentanyl patch delivered approximately 25 μg/h of analgesia for a total duration of 72–80 h. Dogs were also pre-medicated before surgery with glycopyrrolate (0.005–0.02 mg/kg), acepromazine (0.01–0.05 mg/kg) and morphine (0.5–1.0 mg/kg) injected subcutaneously. General anesthesia was induced using propofol (2–6 mg/kg) given intravenously; each dog was then intubated and maintained on isoflurane in oxygen (0.5–5%) administered to effect. The hair over the surgical site was clipped, and a preliminary aseptic prep of the area was done by alternating scrubs of chlorhexidine surgical scrub and sterile dry gauze sponges. A local anesthetic line block of lidocaine and bupivacaine (1.5 mg each) diluted in saline was administered at the incision site to provide local pre-emptive anesthesia. The limb was draped with a sterile fenestrated surgical drape. A small 2 cm medial parapatellar skin incision and a subsartorius capsular approach were made to expose the meniscus. For removal of the anterior one-half of the medial meniscus, the cranial meniscotibial ligament was incised, and the capsular attachments to the cranial pole of the meniscus were separated sharply with a scalpel under direct vision, sparing injury to the articular cartilage or the ACL. The medial meniscus was reflected medially with a hemostat. […] Animals were monitored closely throughout the recovery and post-operative period. […]
All animals were humanely euthanized on Day 29 to collect specimens for pathology. […] At study termination, the left (operated) knee was opened, disarticulated and the lesions on the medial tibia and femur measured, described and photographed. […] Lesions were classified as more severe or less severe depending on the intensity of India ink staining or perception of depth and areas for each calculated. Gross cartilage lesions were measured (length × width) and described as superficial, moderate, or deep. […]

C#C[C@@H]1CN(C(=O)[C@H](CC(C)C)NC(=O)c2ccc(-c3nc(N4CCN(C)CC4)sc3F)cc2)[C@@H]2C(=O)CO[C@H]12 [MIV-711]
Macroscopic score, Calculated (Femur condyle): 9.07 ± 4.78
Macroscopic score, Subjective (Femur condyle): 1.13 ± 0.32
Macroscopic score, Calculated (Tibia plateau): 23.88 ± 3.17
Macroscopic score, Subjective (Tibia plateau): 2.33 ± 0.21
